Here are results for two compounds from patent US20140121168A1, “ANTAGONISTS OF TRPV1 RECEPTOR” (ANTAGONISTS OF TRPV1 RECEPTOR, priority 2011, published 2014).

Where a SMILES comes first, the peptide text is derived from it. Bridges are numbered along the chain shown (N, C = ends). [ ]: non-standard residue; d: D form. d(aThr) = C[C@@H](O)[C@@H](N)C(=O)O; Dhb = C/C=C(\N)C(=O)O

This assay has as its target TRPV1 (Homo sapiens, UniProt Q8NER1). Put plainly: TRPV1 assays, inhibition of capsaicin response (cell line not stated for the IC50 values).

TRPV1, sequence (Q8NER1 whole entry): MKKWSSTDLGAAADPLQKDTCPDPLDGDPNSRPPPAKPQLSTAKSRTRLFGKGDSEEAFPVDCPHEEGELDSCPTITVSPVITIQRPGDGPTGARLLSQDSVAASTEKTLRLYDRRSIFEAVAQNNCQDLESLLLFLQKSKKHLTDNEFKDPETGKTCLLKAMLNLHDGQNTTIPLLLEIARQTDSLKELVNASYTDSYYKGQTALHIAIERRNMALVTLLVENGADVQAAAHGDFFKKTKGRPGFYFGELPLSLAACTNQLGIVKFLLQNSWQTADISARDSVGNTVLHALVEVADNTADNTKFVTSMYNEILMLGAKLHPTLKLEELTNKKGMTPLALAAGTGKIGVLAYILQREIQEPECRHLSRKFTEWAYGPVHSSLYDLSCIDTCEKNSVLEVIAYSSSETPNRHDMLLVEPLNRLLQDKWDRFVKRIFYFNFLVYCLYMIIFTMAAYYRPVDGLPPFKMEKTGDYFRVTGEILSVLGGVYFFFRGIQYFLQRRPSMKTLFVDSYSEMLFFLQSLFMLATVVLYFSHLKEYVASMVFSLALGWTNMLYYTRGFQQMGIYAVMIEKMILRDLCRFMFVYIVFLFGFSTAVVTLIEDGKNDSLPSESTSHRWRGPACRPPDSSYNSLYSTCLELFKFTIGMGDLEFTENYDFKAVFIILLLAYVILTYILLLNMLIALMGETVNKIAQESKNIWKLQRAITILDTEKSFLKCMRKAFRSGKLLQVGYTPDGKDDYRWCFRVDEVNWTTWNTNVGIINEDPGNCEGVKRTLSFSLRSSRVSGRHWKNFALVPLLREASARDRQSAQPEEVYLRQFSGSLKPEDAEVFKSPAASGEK

In the case of `C/C=C1\NC(=O)[C@H](C)NC(=O)[C@H](C(C)C)NC(=O)[C@H](NC(=O)[C@H](Cc2ccccc2)NC(=O)[C@@H](CC(C)C)NC(=O)[C@@H](Cc2ccccc2)NC(C)=O)[C@@H](C)OC1=O` [compound 1, A-3302-B] (Ac-[dF][dL]F[d(aThr)]VA[Dhb]; ester 4-C), the “inhibitory activity on TRPV1 (in words)” value is on record as “substantial inhibitory activity”.

On to Nobilamide E [compound 8], for which the “inhibitory activity on TRPV1 (in words)” value was “inactive”.
